In ChEMBL document CHEMBL1151260, “Expanding the ChemGPS chemical space with natural products” (J Nat Prod, 2005):

What was measured:
[1] = target: T1, Prostaglandin G/H synthase 1 (Homo sapiens, UniProt P23219)
[2] = target: T1, Prostaglandin G/H synthase 1; test: Inhibition of COX1 at 30 ug/mL
[3] = target: T2, Prostaglandin G/H synthase 2 (Homo sapiens) (UniProt P35354); test: Inhibition of COX2 at 25 uM
T2 sequence (whole entry): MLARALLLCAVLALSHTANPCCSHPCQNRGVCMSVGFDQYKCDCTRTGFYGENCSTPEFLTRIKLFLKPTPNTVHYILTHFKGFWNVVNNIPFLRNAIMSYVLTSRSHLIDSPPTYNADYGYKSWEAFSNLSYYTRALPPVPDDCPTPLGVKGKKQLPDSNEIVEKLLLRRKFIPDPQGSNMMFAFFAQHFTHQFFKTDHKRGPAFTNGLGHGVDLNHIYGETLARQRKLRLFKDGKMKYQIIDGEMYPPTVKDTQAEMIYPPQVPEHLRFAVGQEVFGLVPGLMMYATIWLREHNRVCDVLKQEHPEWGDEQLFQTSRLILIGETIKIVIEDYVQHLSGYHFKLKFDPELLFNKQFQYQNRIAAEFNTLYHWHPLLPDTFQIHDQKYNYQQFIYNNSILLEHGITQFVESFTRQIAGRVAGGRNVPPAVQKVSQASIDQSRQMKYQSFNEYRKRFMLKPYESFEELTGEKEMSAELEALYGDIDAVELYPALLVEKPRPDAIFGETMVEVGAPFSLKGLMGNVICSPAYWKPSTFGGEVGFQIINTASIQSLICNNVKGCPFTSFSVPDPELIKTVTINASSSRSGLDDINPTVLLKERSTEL

[4] = target: T1, Prostaglandin G/H synthase 1; test: Inhibition of COX1 at 200 ug/mL
J774.A1 [5] = test: Inhibition of COX2 protein expression in mouse J774A1 cells at 5 uM; type: functional
DLD-1 = test: Inhibition of COX2 mRNA expression in human DLD1 cells; type: functional, cell-based
[6] = target: T1, Prostaglandin G/H synthase 1; test: Inhibition of COX1 at 2.5 ug/mL
[7] = target: T2, Prostaglandin G/H synthase 2 (Homo sapiens); test: Inhibition of COX2 at 170 uM
[8] = target: T2, Prostaglandin G/H synthase 2 (Homo sapiens); test: Inhibition of COX2 at 2.5 ug/mL
J774.A1 [9] = test: Inhibition of COX2 protein expression in mouse J774A1 cells; type: functional, cell-based
MCF-10A = test: Inhibition of COX2 protein expression in human MCF10A cells; type: functional, cell-based
[10] = target: T1, Prostaglandin G/H synthase 1; test: Inhibition of COX1 at 1000 uM
RAW264.7 = test: Inhibition of COX2 protein expression in mouse RAW264.7 cells; type: functional, cell-based
[11] = target: T2, Prostaglandin G/H synthase 2 (Homo sapiens); test: Inhibition of COX2 at 327 uM
[12] = target: T2, Prostaglandin G/H synthase 2 (Homo sapiens); test: Inhibition of COX2 at 3.13 uM
[13] = target: T2, Prostaglandin G/H synthase 2 (Homo sapiens); test: Inhibition of COX2 at 313 uM
[14] = target: T3, Prostaglandin G/H synthase 2 (Homo sapiens, UniProt P35354); test: Inhibition of COX2 at 1000 uM
T3 sequence (P35354 whole entry): T2 sequence (whole entry)

SKGT4 [15] = test: Inhibition of COX2 mRNA expression in human SKGT4 cells; type: functional, cell-based
SKGT4 [16] = test: Inhibition of COX2 protein expression in human SKGT4 cells; type: functional, cell-based
[17] = target: T1, Prostaglandin G/H synthase 1; details: 180 ug/mL
Description: Inhibition of COX1 at 180 ug/mL

[18] = target: T2, Prostaglandin G/H synthase 2 (Homo sapiens); test: Inhibition of COX2 at 0.1 ug/mL

T1 sequence (P23219 whole entry): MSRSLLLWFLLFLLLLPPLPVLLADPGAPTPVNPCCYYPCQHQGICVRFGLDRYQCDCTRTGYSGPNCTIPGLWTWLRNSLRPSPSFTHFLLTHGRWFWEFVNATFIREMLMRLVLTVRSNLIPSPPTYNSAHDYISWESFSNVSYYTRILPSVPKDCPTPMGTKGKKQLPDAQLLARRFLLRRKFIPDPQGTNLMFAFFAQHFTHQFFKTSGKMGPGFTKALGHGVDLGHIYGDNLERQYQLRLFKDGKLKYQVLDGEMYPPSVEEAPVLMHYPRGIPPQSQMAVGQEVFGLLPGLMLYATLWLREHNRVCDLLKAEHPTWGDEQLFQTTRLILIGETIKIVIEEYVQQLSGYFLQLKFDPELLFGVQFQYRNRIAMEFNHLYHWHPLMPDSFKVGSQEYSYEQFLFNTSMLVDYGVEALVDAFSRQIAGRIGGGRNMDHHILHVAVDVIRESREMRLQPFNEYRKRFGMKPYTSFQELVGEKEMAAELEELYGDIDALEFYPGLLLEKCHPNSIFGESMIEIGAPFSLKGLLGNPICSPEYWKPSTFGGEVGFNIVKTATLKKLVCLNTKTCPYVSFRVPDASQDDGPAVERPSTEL

| SMILES | IC50 [1] [µM] | also measured |
| --- | --- | --- |
| COc1cc(CNC(=O)CCCC/C=C/C(C)C)ccc1O [CAPSAICIN] | 3.8 |  |
| COc1ccc2cc1Oc1ccc(cc1)C[C@H]1c3cc(c(OC)cc3CCN1C)Oc1c(O)c(OC)cc3c1[C@H](C2)N(C)CC3 [FANGCHINOLINE] | 129 |  |
| C[C@@H]1OC(O[C@@H]2[C@@H](O)[C@H](OCCc3ccc(O)c(O)c3)O[C@H](CO[C@@H]3OC[C@](O)(CO)[C@H]3O)[C@H]2OC(=O)/C=C/c2ccc(O)c(O)c2)[C@H](O[C@@H]2OC[C@H](O)[C@H](O)[C@H]2O)[C@H](O)[C@H]1O (stereo not given in full) [BALLOTETROSIDE] | 1000 |  |
| O=C(O[C@@H]1Cc2c(O)cc(O)cc2O[C@@H]1c1cc(O)c(O)c(O)c1)c1cc(O)c(O)c(O)c1 |  | inhibition [2]: 51%; inhibition [3]: 13% |
| Cc1ccc(C(C)C)cc1O [CARVACROL] | 4 |  |
| CC1(C)CC[C@]2(C)CC[C@]3(C)[C@H]4CC=C5[C@@H](CCC(=O)C5(C)C)[C@]4(C)CC[C@@]3(C)[C@@H]2C1 [GLUTINONE] | 3.6 |  |
| CC/C=C/C/C=C/C/C=C/C/C=C/CC/C=C/COCC(=O)O | 50 |  |
| COc1cc(O[C@@H]2O[C@H](CO)[C@@H](O)[C@H](O)[C@H]2O)cc2oc(-c3ccc(O)cc3)cc(=O)c12 |  | inhibition [4]: 13% |
| COc1cc(/C=C/CO)ccc1O[C@@H]1O[C@H](CO)[C@@H](O)[C@H](O)[C@H]1O [CONIFERIN] | 75 |  |
| C=C1C(=O)C(O)=C[C@@H]2[C@]3(C)CC[C@](C)(C(=O)CO)C[C@@H]3CC[C@]12C [AKENDO 3] | 34 |  |
| C=C1CCC[C@]2(C)CC[C@@H]([C@@](C)(O)CO)C[C@]12O | 1.3 |  |
| O=c1c(O)c(-c2ccccc2)oc2cc(O)cc(O)c12 [GALANGIN] |  | inhibition at 5 µM (J774.A1 [5]): 59% |
| CC(C)=CCc1c(-c2ccc(O)cc2O)oc2c(CC=C(C)C)c(O)cc(O)c2c1=O [KUWANON C] | 62 |  |
| CC(C)=CCC12Oc3cc(O)c(C4=CC5(C)CC(C4)c4ccc(O)cc4O5)c(O)c3C(=O)C1(O)Oc1cc(O)ccc12 (stereo not given) [SANGGENON B] | 42 |  |
| Oc1cc(O)c2c(c1)O[C@H](c1ccc(O)c(O)c1)[C@H](O)C2 [(-)-EPICATECHIN] |  | IC50 (DLD-1): 415 µM |
| CC/C=C/C/C=C/C/C=C/C/C=C/CCSCCCC(=O)O | 81 |  |
| C=CCc1ccc(OC(C)=O)c(OC)c1 [EUGENYL ACETATE] | 3 |  |
| CC(=O)[C@H]1CC[C@]2(C)CC[C@@H]([C@](C)(O)CO)C[C@]12O [LUCINONE] | 43 |  |
| CCCCC/C=C\C/C=C\CCCCCCCC(=O)O [LINOLEIC ACID] | 13 |  |
| O=c1cc(-c2ccc(O)c(O)c2)oc2cc(O)cc(O)c12 |  | inhibition [6]: 75% |

| SMILES | IC50 [1] [µM] | also measured |
| --- | --- | --- |
| CC(/C=C/C=C(\C)C(=O)O)=C\C=C\C=C(C)\C=C\C=C(/C)C(=O)O [TRANSCROCETIN] | 28 |  |
| COc1c(O)cc([C@H]2Oc3c(c(O)cc(O)c3[C@H]3c4c(O)cc(O)cc4O[C@H](c4ccc(O)cc4)[C@@H]3O)C[C@H]2O)cc1O [OURATEAPROANTHOCYANIDIN A] | 138 | inhibition [7]: 37% |
| O=c1c(O[C@@H]2O[C@H](CO)[C@@H](O)[C@H](O)[C@H]2O)c(-c2ccc(O)c(O)c2)oc2cc(O)cc(O)c12 |  | inhibition [8]: 25% |
| O=C1C[C@@H](c2ccc(O)cc2)Oc2cc(O)cc(O)c21 |  | Activity (J774.A1 [9]): Dose-dependent effect |
| C[C@@H]1O[C@@H](O[C@H]2[C@H](Oc3cc(O)c4c(=O)cc(-c5ccc(O)cc5)oc4c3)O[C@H](CO)[C@@H](O)[C@@H]2O)[C@H](O)[C@H](O)[C@H]1O |  | inhibition [8]: 20% |
| Oc1cc(O)c2c(c1)O[C@H](c1ccc(O)c(O)c1)[C@@H](O)C2 [CIANIDANOL] | 80 |  |
| C[C@@H]1CC(=O)[C@]2(CO)[C@H](CCC[C@]23CO3)[C@@]12C[C@@H](c1ccoc1)OC2=O [GNAPHALIN] | 40 |  |
| O=C(CCc1ccc(O)c(O)c1)C[C@@H](O)CCc1ccc(O)c(O)c1 |  | Activity (MCF-10A): Dose-dependent effect |
| C=C[C@@H](O)C#CC#C[C@@H](O)/C=C/CCCCCCCC(=O)OC(C)=O | 73 |  |
| O=c1cc(-c2ccc(O)cc2)oc2cc(O)cc(O)c12 [APIGENIN] |  | inhibition [10]: 65%; IC50 (RAW264.7): 0.5 µM; inhibition at 5 µM (J774.A1 [5]): 64% |
| Oc1cc(O)c2c(c1)O[C@H](c1cc(O)c(O)c(O)c1)[C@@H](O)C2 [GALLOCATECHIN] | 95 | inhibition [11]: 46% |
| O=c1c(O)c(-c2ccc(O)c(O)c2)oc2cc(O)cc(O)c12 |  | inhibition [8]: 40%; Activity (DLD-1): Dose-dependent effect; inhibition [6]: 90% |
| CC(C)=CCc1c(O)ccc2ccc(=O)oc12 [OSTHENOL] | 64 |  |
| COc1cc2ccc(=O)oc2c(O)c1O [FRAXETIN] | 524 |  |
| COc1cc(-c2cc(=O)c3cc(OC)c(OC)cc3o2)ccc1O |  | inhibition [10]: 37% |
| C=C1CCC[C@]2(C)CC[C@@H]([C@@](C)(O)CO)C[C@@]12O [KUTDTRIOL] | 39 |  |
| COc1c(O)cc([C@H]2Oc3cc(O)cc(O)c3C[C@H]2O)cc1O | 3.3 | inhibition [12]: 23% |
| O=C(/C=C/c1ccc(O)c(O)c1)O[C@H](Cc1ccc(O)c(O)c1)C(=O)O |  | inhibition [10]: 58% |
| COc1c(O)cc([C@@H]2Oc3cc(O)cc(O)c3C[C@H]2O)cc1O | 12 | inhibition [13]: 61% |
| COc1cc(/C=C/CO)cc(OC)c1O[C@@H]1O[C@H](CO)[C@@H](O)[C@H](O)[C@H]1O [SYRINGIN] | 36 |  |

| SMILES | IC50 [1] [µM] | also measured |
| --- | --- | --- |
| COc1cc(-c2cc(=O)c3c(O)c(OC)c(OC)c(O)c3o2)ccc1O |  | inhibition [10]: 37% |
| COc1cc2oc(-c3ccc(O)cc3)cc(=O)c2c(O)c1OC [CIRSIMARITIN] |  | IC50 [14]: 6% |
| OC[C@H]1O[C@@H](OCCc2ccc(O)cc2)[C@H](O)[C@@H](O)[C@@H]1O [SALIDROSIDE] | 72 |  |
| C=C1CC/C=C(\C)C(=O)[C@H](OC(C)=O)[C@@H]2[C@@H]1CC2(C)C [BUDDLEDIN A] | 14 |  |
| COc1cc(/C=C/C(=O)CC(=O)/C=C/c2ccc(O)c(OC)c2)ccc1O |  | Activity (SKGT4 [15]): Dose-dependent effect; Activity (SKGT4 [16]): Dose-dependent effect |
| CC(=O)Oc1ccccc1C(=O)O |  | inhibition [10]: 46%; inhibition [17]: 52% |
| CC(C)=CCC12Oc3cc(O)ccc3C1(O)Oc1cc(O)c([C@H]3C=C(C)C[C@@H](c4ccc(O)cc4O)[C@@H]3C(=O)c3ccc(O)cc3O)c(O)c1C2=O (stereo not given in full) [SANGGENON D] | 59 |  |
| O=C(/C=C/c1ccc(O)c(O)c1)OCCc1ccccc1 [CAFFEIC ACID PHENETHYL ESTER] | 58 |  |
| CC(C)[C@@H]1CC[C@@H](C)C[C@H]1O |  | inhibition [18]: 60% |
| O=c1c(-c2ccc(O)cc2)coc2cc(O)cc(O)c12 [GENISTEIN] | 80 |  |
| C=C(C)C(CC=C(C)C)Cc1c(O)cc(OC)c2c1O[C@H](c1ccc(O)cc1O)CC2=O (stereo not given in full) [KURARINONE] | 0.6 |  |
| C=C[C@@H](O)C#CC#C[C@@H](O)/C=C\CCCCCCC [FALCARINDIOL] | 66 |  |
| CC(C)=CCc1c([C@@H]2CCc3ccc(O)cc3O2)cc2c(c1O)OC(C)(C)C=C2 [KAZINOL B] | > 100 |  |
| C=CCc1ccc(O)c(OC)c1 [EUGENOL] | 11 | inhibition [10]: 97% |
| C=C(C)[C@H](CC=C(C)C)Cc1c(O)cc(OC)c(C(=O)/C=C/c2ccc(O)cc2O)c1O [KURAIDIN] | 0.6 |  |
| O=c1ccc2ccc(O)c(O)c2o1 [DAPHNETIN] | 140 |  |
| CC(C)=CCC/C(C)=C\CC1=CC(=O)C=C(C)C1=O | 64 |  |
| O=C(O)[C@H]1O[C@@H](Oc2c(-c3cc(O)c(O)c(O)c3)oc3cc(O)cc(O)c3c2=O)[C@H](O)[C@@H](O)[C@@H]1O | 10 |  |
